Experimental findings from patent US10577378B2, “EIF4A-inhibiting compounds and methods related thereto” (eFFECTOR Therapeutics, Inc., priority 2015, dated 2020) are described below.

Some results are limits rather than exact numbers.

This assay has as its system MDA-MB-231 human breast cancer cells. Kind of assay: Cell proliferation assay (CellTiter-Glo, 72 hours treatment). It is filed as cell-based. The note with it: Homo sapiens; MDA-MB-231 cells, 72 hours at 37° C., CellTiter-Glo; read-out: MDA-MB-231 cell proliferation assay (IC50). Put shortly:
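IC50 categories: under 100 nM +++, 100–1000 nM ++, above 1000 nM +, derived by sigmoidal curve fitting of CellTiter-Glo luminescence. Cells plated at 2,500 per well, dosed the following day and exposed 72 h at 37 °C versus DMSO control.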
A general note: Cellular ATP, detected with luciferase, serves as a proxy for viable cell number.
In the case of `COCCNC(=O)[C@H]1[C@@H](O)[C@@]2(O)c3c(OC)cncc3O[C@@]2(c2ccc(Br)cc2)[C@@H]1c1ccccc1` (racemic) [262F, Rac-(4bS,5R,6R,7S,7aR)-7a-(4-bromophenyl)-4b,5-dihydroxy-4-methoxy-N-(2-methoxyethyl)-7-phenyl-4b,6,7,7a-tetrahydro-5H-cyclopenta[4,5]furo[2,3-c]pyridine-6-carboxamide], the IC50 was less than 100 nM.
For `COc1cncc2c1[C@]1(O)[C@H](O)[C@H](C(=O)N3[C@@H]4CC[C@H]3COC4)[C@@H](c3ccccc3)[C@]1(c1ccc(Br)cc1)O2` (racemic) [264F, Rac-((1R,5S)-3-oxa-8-azabicyclo[3.2.1]octan-8-yl)((4bS,5R,6R,7S,7aR)-7a-(4-bromophenyl)-4b,5-dihydroxy-4-methoxy-7-phenyl-4b,6,7,7a-tetrahydro-5H-cyclopenta[4,5]furo[2,3-c]pyridin-6-yl)methanone], the IC50 is less than 100 nM.
As to `COc1cncc2c1[C@]1(O)[C@H](O)[C@H](C(=O)N3[C@@H]4COC[C@H]3C4)[C@@H](c3ccccc3)[C@]1(c1ccc(Br)cc1)O2` (racemic) [266F, Rac-((1R,5S)-3-oxa-6-azabicyclo[3.1.1]heptan-6-yl)((4bS,5R,6R,7S,7aR)-7a-(4-bromophenyl)-4b,5-dihydroxy-4-methoxy-7-phenyl-4b,6,7,7a-tetrahydro-5H-cyclopenta[4,5]furo[2,3-c]pyridin-6-yl)methanone], the IC50 was less than 100 nM.
Next, `COc1cncc2c1[C@]1(O)[C@H](O)[C@H](CN3[C@@H]4COC[C@H]3C4)[C@@H](c3ccccc3)[C@]1(c1ccc(C#N)cc1)O2` (racemic) [267F, Rac-4-((4bS,5R,6S,7S,7aR)-6-(((1R,5S)-3-oxa-6-azabicyclo[3.1.1]heptan-6-yl)methyl)-4b,5-dihydroxy-4-methoxy-7-phenyl-4b,5,6,7-tetrahydro-7aH-cyclopenta[4,5]furo[2,3-c]pyridin-7a-yl)benzonitrile]: 100 to 1000 nM; `COc1cncc2c1[C@]1(O)[C@@H]3OC(=O)N[C@@H]3[C@@H](c3ccccc3)[C@]1(c1ccc(C(F)F)cc1)O2` (racemic) [269F, rac-(3aR,4R,4aR,9bS,9cR)-4a-(4-(difluoromethyl)phenyl)-9b-hydroxy-9-methoxy-4-phenyl-3,3a,4,4a,9b,9c-hexahydro-2H-oxazolo[4″,5″:4′,5′]cyclopenta[1′,2′:4,5]furo[2,3-c]pyridin-2-one]: less than 100 nM; `COc1cncc2c1[C@]1(O)[C@H](O)[C@H](N)[C@@H](c3ccccc3)[C@]1(c1ccc(C(F)F)cc1)O2` (racemic) [270F, Rac-(4bS,5R,6R,7R,7aR)-6-amino-7a-(4-(difluoromethyl)phenyl)-4-methoxy-7-phenyl-5,6,7,7a-tetrahydro-4bH-cyclopenta[4,5]furo[2,3-c]pyridine-4b,5-diol]: 100 to 1000 nM.
To `COc1cncc2c1[C@]1(O)[C@H](O)[C@H](C(=O)N(C)C)[C@@H](c3ccccc3)[C@]1(c1ccc(Cl)cc1)O2` (racemic) [271F, rac-(4bS,5R,6R,7S,7aR)-7a-(4-chlorophenyl)-4b,5-dihydroxy-4-methoxy-N,N-dimethyl-7-phenyl-4b,6,7,7a-tetrahydro-5H-cyclopenta[4,5]furo[2,3-c]pyridine-6-carboxamide] belongs 100 to 1000 nM; to `COc1cncc2c1[C@]1(O)[C@H](O)[C@H](C(=O)N3CC4CC(C3)O4)[C@@H](c3ccccc3)[C@]1(c1ccc(Br)cc1)O2` (racemic) [273F, Rac-(6-oxa-3-azabicyclo[3.1.1]heptan-3-yl)((4bS,5R,6R,7S,7aR)-7a-(4-bromophenyl)-4b,5-dihydroxy-4-methoxy-7-phenyl-4b,6,7,7a-tetrahydro-5H-cyclopenta[4,5]furo[2,3-c]pyridin-6-yl)methanone], less than 100 nM.
`COc1cncc2c1[C@]1(O)[C@@H]3OC(=O)C[C@@H]3[C@@H](c3ccccc3)[C@]1(c1ccc(Br)cc1)O2` (racemic) [275F, Rac-(3aR,4S,4aR,9bS,9cR)-4a-(4-bromophenyl)-9b-hydroxy-9-methoxy-4-phenyl-3,3a,4,4a,9b,9c-hexahydro-2H-furo[3″,2″:4′,5′]cyclopenta[1′,2′:4,5]furo[2,3-c]pyridin-2-one]: the IC50 is less than 100 nM.
Consider `COc1cncc2c1[C@]1(O)[C@H](O)[C@H](CCN(C)C)[C@@H](c3ccccc3)[C@]1(c1ccc(C#N)cc1)O2` (racemic) [276F, Rac-4-((4bS,5R,6R,7S,7aR)-6-(2-(dimethylamino)ethyl)-4b,5-dihydroxy-4-methoxy-7-phenyl-4b,5,6,7-tetrahydro-7aH-cyclopenta[4,5]furo[2,3-c]pyridin-7a-yl)benzonitrile], for which the IC50 fell in the range of 100 to 1000 nM.
Next, `COc1cncc2c1[C@]1(O)[C@H](O)[C@H](C(=O)N(C)Cc3cccnc3)[C@@H](c3ccccc3)[C@]1(c1ccc(Br)cc1)O2` (racemic) [277F, Rac-(4bS,5R,6R,7S,7aR)-7a-(4-bromophenyl)-4b,5-dihydroxy-4-methoxy-N-methyl-7-phenyl-N-(pyridin-3-ylmethyl)-4b,6,7,7a-tetrahydro-5H-cyclopenta[4,5]furo[2,3-c]pyridine-6-carboxamide]: less than 100 nM; `COc1cncc2c1[C@]1(O)[C@H](O)[C@H](C(=O)N3CCC(F)(F)C3)[C@@H](c3ccccc3)[C@]1(c1ccc(Br)cc1)O2` (racemic) [279F, Rac-((4bS,5R,6R,7S,7aR)-7a-(4-bromophenyl)-4b,5-dihydroxy-4-methoxy-7-phenyl-4b,6,7,7a-tetrahydro-5H-cyclopenta[4,5]furo[2,3-c]pyridin-6-yl)(3,3-difluoropyrrolidin-1-yl)methanone]: less than 100 nM.
Next, `COc1cncc2c1[C@]1(O)[C@H](O)[C@H](C(=O)N3CCOCC3)[C@@H](c3ccccc3)[C@]1(c1ccc(C(F)(F)F)cc1)O2` (racemic) [281F, rac-((4bS,5R,6R,7S,7aR)-4b,5-dihydroxy-4-methoxy-7-phenyl-7a-(4-(trifluoromethyl)phenyl)-4b,6,7,7a-tetrahydro-5H-cyclopenta[4,5]furo[2,3-c]pyridin-6-yl)(morpholino)methanone]: 100 to 1000 nM; `COc1cncc2c1[C@]1(O)[C@H](O)[C@H](C(=O)N3CCN(C)CC3)[C@@H](c3ccccc3)[C@]1(c1ccc(C(F)(F)F)cc1)O2` (racemic) [283F, rac-((4bS,5R,6R,7S,7aR)-4b,5-dihydroxy-4-methoxy-7-phenyl-7a-(4-(trifluoromethyl)phenyl)-4b,6,7,7a-tetrahydro-5H-cyclopenta[4,5]furo[2,3-c]pyridin-6-yl)(4-methylpiperazin-1-yl)methanone]: 100 to 1000 nM.
Take `COc1cncc2c1[C@]1(O)[C@H](O)[C@H](C(=O)NCC(F)F)[C@@H](c3ccccc3)[C@]1(c1ccc(C(F)(F)F)cc1)O2` (racemic) [285F, Rac-(4bS,5R,6R,7S,7aR)—N-(2,2-difluoroethyl)-4b,5-dihydroxy-4-methoxy-7-phenyl-7a-(4-(trifluoromethyl)phenyl)-4b,6,7,7a-tetrahydro-5H-cyclopenta[4,5]furo[2,3-c]pyridine-6-carboxamide]: the IC50 fell in the range of 100 to 1000 nM.
For the compound `COc1cncc2c1[C@]1(O)[C@](O)(CN3CCOCC3)C[C@@H](c3ccccc3)[C@]1(c1ccc(C#N)cc1)O2` (racemic) [287F, Rac-4-((4bS,5R,7S,7aR)-4b,5-dihydroxy-4-methoxy-5-(morpholinomethyl)-7-phenyl-4b,5,6,7-tetrahydro-7aH-cyclopenta[4,5]furo[2,3-c]pyridin-7a-yl)benzonitrile], the IC50 is more than 1000 nM.
